# Measurements as given in patent publication US20080249165A1, “Glycosides and Salts Thereof” (Ivax Drug Research Institute Ltd., priority 2004, published 2008).
# Where a name gives a salt, the structure may show the parent alone. Read-outs that look alike come from different tables or passages of the source.
# Columns and labels:
# [1] = target: T1, IP-3 receptor (Rattus norvegicus, UniProt P29994); experiment: IP-3 receptor antagonistic effect: inhibition of IP3 binding in rat cerebellum membrane preparations (Model 5)
# T1 construct: from tissue; host or cells: rat cerebellum (microsomal membrane preparation)
# T1 sequence (P29994 whole entry): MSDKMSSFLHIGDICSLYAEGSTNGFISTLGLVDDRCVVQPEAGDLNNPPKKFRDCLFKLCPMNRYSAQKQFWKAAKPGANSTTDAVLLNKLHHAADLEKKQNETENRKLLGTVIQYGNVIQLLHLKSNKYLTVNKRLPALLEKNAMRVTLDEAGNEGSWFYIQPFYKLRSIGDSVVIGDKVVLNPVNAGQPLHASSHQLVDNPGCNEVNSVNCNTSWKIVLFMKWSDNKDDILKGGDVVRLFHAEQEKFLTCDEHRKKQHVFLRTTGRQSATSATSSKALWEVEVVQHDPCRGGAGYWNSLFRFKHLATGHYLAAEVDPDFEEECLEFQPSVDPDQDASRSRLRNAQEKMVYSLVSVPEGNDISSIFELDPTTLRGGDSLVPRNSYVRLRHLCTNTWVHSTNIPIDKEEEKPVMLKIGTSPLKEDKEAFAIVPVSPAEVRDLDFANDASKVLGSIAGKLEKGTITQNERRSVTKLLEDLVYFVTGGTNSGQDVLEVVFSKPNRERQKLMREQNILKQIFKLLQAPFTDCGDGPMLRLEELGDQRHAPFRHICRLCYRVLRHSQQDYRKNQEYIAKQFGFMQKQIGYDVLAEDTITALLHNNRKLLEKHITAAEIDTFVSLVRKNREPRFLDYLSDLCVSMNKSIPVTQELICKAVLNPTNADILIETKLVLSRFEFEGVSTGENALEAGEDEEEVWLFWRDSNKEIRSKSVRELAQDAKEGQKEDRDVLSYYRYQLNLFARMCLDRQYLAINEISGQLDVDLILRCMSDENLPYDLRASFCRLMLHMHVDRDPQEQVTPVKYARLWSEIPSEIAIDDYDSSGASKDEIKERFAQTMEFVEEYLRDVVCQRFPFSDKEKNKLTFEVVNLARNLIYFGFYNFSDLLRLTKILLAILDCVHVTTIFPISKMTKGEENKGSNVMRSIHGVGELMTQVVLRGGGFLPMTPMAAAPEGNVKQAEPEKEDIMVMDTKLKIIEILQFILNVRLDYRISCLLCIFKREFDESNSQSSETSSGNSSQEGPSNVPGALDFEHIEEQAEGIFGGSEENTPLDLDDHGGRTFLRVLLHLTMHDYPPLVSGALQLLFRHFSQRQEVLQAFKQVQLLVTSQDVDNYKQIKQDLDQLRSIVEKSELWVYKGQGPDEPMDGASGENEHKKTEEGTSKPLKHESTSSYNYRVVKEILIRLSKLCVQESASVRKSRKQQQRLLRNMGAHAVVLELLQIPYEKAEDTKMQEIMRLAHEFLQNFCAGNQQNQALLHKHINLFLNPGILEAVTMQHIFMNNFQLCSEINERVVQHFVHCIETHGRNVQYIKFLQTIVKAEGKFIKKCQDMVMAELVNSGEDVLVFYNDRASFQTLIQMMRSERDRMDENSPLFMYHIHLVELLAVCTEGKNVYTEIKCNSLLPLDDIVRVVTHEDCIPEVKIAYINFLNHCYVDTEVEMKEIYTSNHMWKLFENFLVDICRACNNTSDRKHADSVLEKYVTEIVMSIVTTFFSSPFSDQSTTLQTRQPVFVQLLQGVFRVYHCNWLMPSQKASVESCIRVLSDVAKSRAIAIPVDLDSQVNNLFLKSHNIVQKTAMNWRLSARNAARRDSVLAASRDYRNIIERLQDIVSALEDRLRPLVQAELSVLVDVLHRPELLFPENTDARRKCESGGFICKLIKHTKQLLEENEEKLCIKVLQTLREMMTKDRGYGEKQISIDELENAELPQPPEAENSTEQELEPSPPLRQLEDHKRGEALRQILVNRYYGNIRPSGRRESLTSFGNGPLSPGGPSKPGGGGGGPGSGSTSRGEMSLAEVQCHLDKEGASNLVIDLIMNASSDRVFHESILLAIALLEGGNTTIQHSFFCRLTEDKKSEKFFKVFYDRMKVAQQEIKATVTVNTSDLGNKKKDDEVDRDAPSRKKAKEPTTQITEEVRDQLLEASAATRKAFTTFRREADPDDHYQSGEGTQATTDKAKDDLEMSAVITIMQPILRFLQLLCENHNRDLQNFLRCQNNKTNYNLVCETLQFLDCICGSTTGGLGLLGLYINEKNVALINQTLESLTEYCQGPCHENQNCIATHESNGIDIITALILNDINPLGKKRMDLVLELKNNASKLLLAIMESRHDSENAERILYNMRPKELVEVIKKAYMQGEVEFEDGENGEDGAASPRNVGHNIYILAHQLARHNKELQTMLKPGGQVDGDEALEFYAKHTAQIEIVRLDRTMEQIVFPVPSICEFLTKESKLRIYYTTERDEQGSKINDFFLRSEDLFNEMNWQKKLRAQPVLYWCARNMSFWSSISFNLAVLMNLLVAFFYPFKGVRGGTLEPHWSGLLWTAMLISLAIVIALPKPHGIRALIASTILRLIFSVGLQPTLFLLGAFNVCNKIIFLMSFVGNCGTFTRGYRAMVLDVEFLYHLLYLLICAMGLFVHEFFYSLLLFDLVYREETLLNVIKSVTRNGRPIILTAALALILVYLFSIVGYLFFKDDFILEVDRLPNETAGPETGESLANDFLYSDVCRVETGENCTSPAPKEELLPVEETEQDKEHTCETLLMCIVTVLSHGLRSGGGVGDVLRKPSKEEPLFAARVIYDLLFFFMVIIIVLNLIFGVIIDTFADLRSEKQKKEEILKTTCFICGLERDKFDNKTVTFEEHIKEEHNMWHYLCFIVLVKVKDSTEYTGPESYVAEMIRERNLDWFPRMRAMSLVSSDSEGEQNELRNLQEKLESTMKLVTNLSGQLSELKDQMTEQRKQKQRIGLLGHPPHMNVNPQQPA
# Protocol: The polysulfated glycosides of the present invention, depending on their chemical structure, inhibit the binding of inositol-1,4,5-trisphosphate (IP3) to its receptor in microsomal membrane preparations. As IP3 is a messenger molecule playing distinguished role in the activation of different cells, interfering with this function can explain the anti-asthmatic effect of these polysulfated glycosides. The IP3 antagonist effect of the polysulfated glycosides was determined using rat cerebellum membrane preparations according to Worley et al. (JBC 262, 12132, 1987).
# [2] = test system: BN-rats; experiment: Airways' hyper-responsiveness ex vivo: tracheal contraction to acetylcholine after antigen challenge and intratracheal pretreatment (Model 1); assay type: in vivo, rat; settings: for MAX** Contraction at maximal Ach concentration relative to control (mean ± SEM) / ED50* log M acetylcholine (Ach), causing 50% contraction relative to control (mean ± SEM): trachea 48 h post challenge; for ED50* log M acetylcholine (Ach), causing 50% contraction relative to control (mean ± SEM): sensitized BN rats
# Protocol: Brown Norway (BN) rats were actively sensitized to ovalbumin (OA) by a subcutaneous injection of 0.5 ml of OA/Al(OH)3 gel mixture (2 mg OA+10 g Al(OH)3/100 ml saline) on day 1 with subsequent subcutaneous injections (10 mg OA+10 g Al(OH)3/100 ml saline) given on days 14 and 21. On day 28, animals received the compound described in the first example intratracheally (0.001; 0.01; 0.1 or 1.0 mg/kg dose) 2 hours before antigen challenge. Antigen challenge was performed by inhalation of nebulised ovalbumin (1% antigen solution administered in a TSE inhalation system for 1 hour). Animals were sacrificed 48 hours post antigen challenge wherein the tracheas were removed to an organ bath. Dissected tracheas were allowed to equilibrate for 30 minutes before measuring tracheal spasmogenic response curves to acetylcholine (Ach).
# [3] = test system: BN rats; experiment: Allergen stimulated mucus production of airways epithelial cells (Model 2); assay type: in vivo, rat; settings: for number of PAS(+) cells as percent of total number of cells (average ± SEM): lungs 48 hours after challenge
# Protocol: Sensitized BN rats were treated intratracheally with varying (0.001-1.0 mg/kg) dose of compound described in the first example, two hours before antigenic challenge, using a similar protocol described in Model 1. Lungs were collected 48 hours after challenge and were fixed in 8% phosphate buffered formaldehyde. Samples were then processed for histochemistry routinely. 5 μm thick sections were stained with periodic-acid-Schiff (PAS) reagents and were counterstained with haematoxylin-eosine. On the sections each epithelial cells of the airways were counted in the whole preparation at a magnification of 400×. The number of PAS(+) [mucus producing] epithelial cells was expressed as the ratio of the total number of epithelial cells.
# [4] = test system: BN rats; experiment: Extent of perivascular oedema developed in asthmatic lung tissue (Model 3); assay type: in vivo, rat; settings: for Oedema* area of oedema relative to area of vasculature (average ± SEM): lungs 48 hours after challenge
# Protocol: Sensitized BN rats were treated intratracheally with varying (0.001-1.0 mg/kg) dose of compound described in the first example, two hours before antigenic challenge, using a similar protocol described in Model 1. Lungs were collected 48 hours after challenge and were fixed in 8% phosphate buffered formaldehyde. Samples were then processed for histochemistry routinely. 5 μm thick sections were stained with periodic-acid-Schiff (PAS) reagents and were counterstained with haematoxylin-eosine. On the sections the area of the connective tissue around the vasculare was determined and expressed as a ratio of the area of the corresponding blood vessel itself.
# [5] = test system: BN rats; experiment: Extent of peribronchial eosinophilia developed in asthmatic lung tissue (Model 4); assay type: in vivo, rat; settings: for peribronchial eosinophil number per visual field (average ± SEM): lungs 48 hours after challenge
# Protocol: Sensitized BN rats were treated intratracheally with varying (0.001-1.0 mg/kg) dose of compound described in the first example, two hours before antigenic challenge, using a similar protocol described in Model 1. Lungs were collected 48 hours after challenge and were fixed in 8% phosphate buffered formaldehyde. Samples were then processed for histochemistry routinely. 5 μm thick sections were stained with May Gruenvald Giemsa and the number of eosinophils, situated peribronchially, was determined.
# [6] = read-out: IC50 (μg/ml) Average ± SEM (n) (converted)
# [7] = 0.001 mg/kg intratracheally 2 hours before antigen challenge
# [8] = 0.1 mg/kg intratracheally 2 hours before antigen challenge
# [9] = 0.001 mg/kg intratracheally two hours before antigenic challenge
# [10] = 0.1 mg/kg intratracheally two hours before antigenic challenge
IC50 ([1]; read-out: Average IC50),"IC50 [1, 6]",Compound,also measured
222 nM,287 nM,"O=S(=O)(O)OC[C@H]1O[C@@H](O[C@H]2[C@H](OS(=O)(=O)O)[C@@H](COS(=O)(=O)O)O[C@@H]2COS(=O)(=O)O)[C@H](OS(=O)(=O)O)[C@@H](OS(=O)(=O)O)[C@@H]1O[C@H]1O[C@H](COS(=O)(=O)O)[C@@H](OS(=O)(=O)O)[C@H](OS(=O)(=O)O)[C@H]1OS(=O)(=O)O [Example 6, 2,5-Anhydro-1,4,6-tri-O-sulfato-3-O-(2,3,6,2′,3′,4′,6′-hepta-O-sulfato-β-D-maltosyl)-D-mannitol deca potassium salt]",
539 nM,698 nM,"O=S(=O)(O)OC[C@H]1O[C@@H](OC[C@H]2O[C@H](CO[C@@H]3O[C@H](COS(=O)(=O)O)[C@@H](OS(=O)(=O)O)[C@H](OS(=O)(=O)O)[C@H]3OS(=O)(=O)O)[C@@H](OS(=O)(=O)O)[C@@H]2OS(=O)(=O)O)[C@H](OS(=O)(=O)O)[C@@H](OS(=O)(=O)O)[C@@H]1OS(=O)(=O)O [Example 8, 2,5-Anhydro-3,4-di-O-sulfato-1,6-bis-O-(2,3,4,6-tetra-O-sulfato-β-D-glucopyranosyl)-D-mannitol deca potassium salt]",
137 nM,177 nM,"O=S(=O)(O)OC[C@H]1O[C@@H](OC[C@H]2O[C@H](CO[C@@H]3O[C@H](COS(=O)(=O)O)[C@@H](OS(=O)(=O)O)[C@H](OS(=O)(=O)O)[C@H]3OS(=O)(=O)O)[C@@H](OS(=O)(=O)O)[C@@H]2O[C@@H]2O[C@H](COS(=O)(=O)O)[C@@H](OS(=O)(=O)O)[C@H](OS(=O)(=O)O)[C@H]2OS(=O)(=O)O)[C@H](OS(=O)(=O)O)[C@@H](OS(=O)(=O)O)[C@@H]1OS(=O)(=O)O [Example 10, 2,5-Anhydro-4-O-sulfato-1,3,6-tris-O-(2,3,4,6-tetra-O-sulfato-β-D-glucopyranosyl)-D-mannitol trideca potassium salt]",
240 nM,310 nM,"O=S(=O)(O)OC[C@H]1O[C@@H](OC[C@H]2O[C@@H](O[C@H]3[C@H](OS(=O)(=O)O)[C@@H](COS(=O)(=O)O)O[C@@H]3COS(=O)(=O)O)[C@H](OS(=O)(=O)O)[C@@H](OS(=O)(=O)O)[C@@H]2OS(=O)(=O)O)[C@H](OS(=O)(=O)O)[C@@H](OS(=O)(=O)O)[C@@H]1OS(=O)(=O)O [Example 7, 2,5-Anhydro-1,4,6-tri-O-sulfato-3-O-[6-O-(2,3,4,6-tetra-O-sulfato-β-D-glucopyranosido)-2,3,4-tetra-O-sulfato-β-D-glucopyranosyl]-D-mannitol deca potassium salt]",
115 nM,148 nM,"O=S(=O)(O)OCC1OC(OCC2OC(OCC3OC(COC4OC(COC5OC(COS(=O)(=O)O)C(OS(=O)(=O)O)C(OS(=O)(=O)O)C5OS(=O)(=O)O)C(OS(=O)(=O)O)C(OS(=O)(=O)O)C4OS(=O)(=O)O)C(OS(=O)(=O)O)C3OS(=O)(=O)O)C(OS(=O)(=O)O)C(OS(=O)(=O)O)C2OS(=O)(=O)O)C(OS(=O)(=O)O)C(OS(=O)(=O)O)C1OS(=O)(=O)O [Example 9, 2,5-Anhydro-3,4-di-O-sulfato-1,6-bis-[(6-O-2,3,4,6-tetra-O-sulfato-β-D-glucopyranosido)-2,3,4-tri-O-sulfato-β-D-glucopyranosyl]-D-mannitol hexadeca potassium salt]",

# Further lines, the compound ahead of its results:
Compound,IC50 ([1]; read-out: Average IC50),"IC50 [1, 6]",also measured
"O=S(=O)(O)OC[C@H]1O[C@@H](O[C@H]2[C@H](OS(=O)(=O)O)[C@@H](COS(=O)(=O)O)O[C@@H]2COS(=O)(=O)O)[C@H](OS(=O)(=O)O)[C@@H](OS(=O)(=O)O)[C@@H]1OS(=O)(=O)O [Example 3, 2,5-Anhydro-1,4,6-tri-O-sulfato-3-O-(2,3,4,6-tetra-O-sulfato-β-D-glucopyranosyl)-D-mannitol hepta sodium salt]",1390 nM,1210 nM,
"O=S(=O)(O)OC[C@H]1O[C@H](COS(=O)(=O)O)[C@@H](OS(=O)(=O)O)[C@@H]1O[C@H]1OC[C@@H](OS(=O)(=O)O)[C@@H](OS(=O)(=O)O)[C@@H]1OS(=O)(=O)O [Example 5, 2,5-Anhydro-1,4,6-tri-O-sulfato-3-O-(2,3,4-tri-O-sulfato-α-D-arabinopyranosyl)-D-mannitol hexa potassium salt]",26500 nM,34300 nM,
"O=S(=O)(O)OC[C@H]1O[C@H](COS(=O)(=O)O)[C@@H](OS(=O)(=O)O)[C@@H]1O[C@@H]1OC[C@H](OS(=O)(=O)O)[C@H](OS(=O)(=O)O)[C@H]1OS(=O)(=O)O [Example 4, 2,5-Anhydro-1,4,6-tri-O-sulfato-3-O-(2,3,4-tri-O-sulfato-α-L-arabinopyranosyl)-D-mannitol hexa potassium salt]",20300 nM,26300 nM,
"O=S(=O)(O)OCC1OC(COS(=O)(=O)O)C(OS(=O)(=O)O)C1OC1OC(COS(=O)(=O)O)C(OS(=O)(=O)O)C(OS(=O)(=O)O)C1OS(=O)(=O)O [Example 1, 2,5-Anhydro-1,4,6-tri-O-sulfato-3-O-(2,3,4,6-tetra-O-sulfato-α-L-idopyranosyl)-D-mannitol hepta sodium salt]",1490 nM,1750 nM,"MAX** Contraction at maximal Ach concentration relative to control (mean ± SEM) [2, 7]: 166 ± 41; ED50* log M acetylcholine (Ach), causing 50% contraction relative to control (mean ± SEM) [2, 7]: 5.78 ± 0.30 log M; MAX** Contraction at maximal Ach concentration relative to control (mean ± SEM) [2, 8]: 99 ± 16; ED50* log M acetylcholine (Ach), causing 50% contraction relative to control (mean ± SEM) [2, 8]: 4.70 ± 0.37 log M; tracheal hyper-reactivity to acetylcholine after ovalbumin challenge (in words) ([2]; dose of 0.1 mg/kg, 48 h after antigen challenge): brought this elevation back to control level; number of PAS(+) cells as percent of total number of cells (average ± SEM) [3, 9]: 35.2 ± 3.5%; number of PAS(+) cells as percent of total number of cells (average ± SEM) [3, 10]: 17.5 ± 2.4%; number of PAS(+), mucus producing cells (in words) ([3]; dose of 0.1 mg/kg): significantly decreased; Oedema* area of oedema relative to area of vasculature (average ± SEM) [4, 9]: 41 ± 6; Oedema* area of oedema relative to area of vasculature (average ± SEM) [4, 10]: 53 ± 6; extent of aedema around the vasculature (in words) ([4]; smallest dose): significantly decreased; peribronchial eosinophil number per visual field (average ± SEM) [5, 9]: 74 ± 2; peribronchial eosinophil number per visual field (average ± SEM) [5, 10]: 25 ± 2; number of peribronchially situated eosinophils in the lung (in words) ([5]; higher doses): the decrease become statistically significant; number of peribronchially situated eosinophils in the lung (in words) ([5]; smallest dose): decreases the extent of it"
"O=S(=O)(O)OCC1OC(COS(=O)(=O)O)C(OS(=O)(=O)O)C1OC1OC(COS(=O)(=O)O)C(OS(=O)(=O)O)C(OS(=O)(=O)O)C1OS(=O)(=O)O [Example 2, 2,5-Anhydro-1,4,6-tri-O-sulfato-3-O-(2,3,4,6-tetra-O-sulfato-α-L-idopyranosyl)-D-mannitol hepta potassium salt]",4810 nM,5650 nM,
